Test results from US8389739B1, “Modulators of retinoid-related orphan receptor gamma” (Orphagen Pharmaceuticals, priority 2006, dated 2013).
pEC50: −log10 of the molar value. Like-named read-outs stand apart in the source and are kept apart here.

Legend:
Experiment in all cases: Crossreactive receptor transcriptional assay (Gal4 hybrid)
Assay type in all cases: cell-based
hAR (androgen receptor) = target: T1, hAR (androgen receptor) (Homo sapiens, UniProt P10275)
T1 construct: 646-919; expressed in transfected cells; host or cells: CHO cells, transient transfection
T1 sequence (P10275 647-920): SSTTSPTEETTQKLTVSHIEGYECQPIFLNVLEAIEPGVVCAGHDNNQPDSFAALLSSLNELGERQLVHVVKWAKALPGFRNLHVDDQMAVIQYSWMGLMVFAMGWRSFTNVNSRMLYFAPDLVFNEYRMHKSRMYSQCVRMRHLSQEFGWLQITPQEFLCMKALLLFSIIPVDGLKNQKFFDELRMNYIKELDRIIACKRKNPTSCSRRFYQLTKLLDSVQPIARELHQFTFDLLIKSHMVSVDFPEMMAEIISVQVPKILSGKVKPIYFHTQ
Protocol: (§1) A firefly luciferase reporter gene for Gal4 DBD hybrid receptors, such as Gal4-RORγ, contains five copies of the Gal4 17-mer response element in its promoter and the coding sequence for firefly luciferase (pG5-luc, Promega). CHO (Chinese Hamster Ovary) cells were cultured in Ham's F12 medium supplemented with 10% fetal calf serum (Gemini Biologicals), 10 μg/ml penicillin and streptomycin, and were maintained in a humidified 37° C. incubator (Thermo Electron, Steri-Cycle) with 5% CO2. 24 hours before transfection, cells were plated in T175 flasks (5×10^6 cells/flask) or T75 flasks (1.7×10^6 cells/flask). Transient transfection of CHO cells was performed using TransIT-CHO reagents (Minis, Madison, Wis.) with a mixing ratio of 2:6:1 between plasmid DNA (in μg), TransIT-CHO (in μl) and CHO-mojo (in μl).
(§2) Plates are maintained at 37° C. in a humidified atmosphere with 7% CO2 overnight. Four (4) hours after cell seeding, compounds dissolved in DMSO at 10 mM were added to cells at final concentrations of 20 micromolar (μM) to 20 nanomolar (nM) in 0.2% DMSO in triplicate plates. Approximately 40 hours later, cytotoxicity in the assay well was characterized by addition of the dye resazurin (O'Brien, Wilson et al. 2000) to a final concentration of 3 μM. […] Percent viability was determined as 2 hour fluorescence, minus background at t=0 hours, normalized to DMSO controls. For detection of luciferase activity, media was removed from plates after the measurement of resazurin conversion, and SteadyLite luciferase reagent (Perkin-Elmer) was added (30 μl/well). Luminescence is detected with a Victor 2-V plate reader (Perkin-Elmer) and normalized to luciferase activity of DMSO control wells alone.

[1] = target: T2, hERα (Estrogen receptor-alpha) (Homo sapiens, UniProt P03372)
T2 construct: 249-595; expressed in transfected cells; host or cells: CHO cells, transient transfection
T2 sequence (P03372 249-595): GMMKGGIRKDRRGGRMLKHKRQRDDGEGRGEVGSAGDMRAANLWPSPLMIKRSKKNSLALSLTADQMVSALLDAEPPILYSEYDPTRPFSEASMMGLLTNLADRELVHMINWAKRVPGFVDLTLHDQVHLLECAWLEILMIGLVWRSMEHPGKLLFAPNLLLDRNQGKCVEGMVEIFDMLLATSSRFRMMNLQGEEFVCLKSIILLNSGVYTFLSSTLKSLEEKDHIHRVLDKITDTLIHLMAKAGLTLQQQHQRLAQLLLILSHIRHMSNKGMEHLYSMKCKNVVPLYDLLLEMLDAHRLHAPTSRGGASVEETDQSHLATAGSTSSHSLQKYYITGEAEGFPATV
Protocol: as §1, §2

hPPARδ = target: T3, hPPARδ (Homo sapiens, UniProt Q03181)
T3 construct: 138-441; expressed in transfected cells; host or cells: CHO cells, transient transfection
T3 sequence (Q03181 138-441): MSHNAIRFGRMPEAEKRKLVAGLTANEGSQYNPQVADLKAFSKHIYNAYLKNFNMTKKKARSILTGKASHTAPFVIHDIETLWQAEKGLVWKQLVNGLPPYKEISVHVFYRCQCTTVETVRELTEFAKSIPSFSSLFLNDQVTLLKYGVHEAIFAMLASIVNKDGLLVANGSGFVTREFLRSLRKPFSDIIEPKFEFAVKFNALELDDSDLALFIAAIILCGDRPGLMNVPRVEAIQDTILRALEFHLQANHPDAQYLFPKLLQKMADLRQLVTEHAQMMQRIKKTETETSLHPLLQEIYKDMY
Protocol: as §1, §2

[2] = target: T4, hRARα (retinoic acid receptor alpha) (Homo sapiens, UniProt P10276)
T4 construct: 156-462; expressed in transfected cells; host or cells: CHO cells, transient transfection
T4 sequence (P10276 156-462): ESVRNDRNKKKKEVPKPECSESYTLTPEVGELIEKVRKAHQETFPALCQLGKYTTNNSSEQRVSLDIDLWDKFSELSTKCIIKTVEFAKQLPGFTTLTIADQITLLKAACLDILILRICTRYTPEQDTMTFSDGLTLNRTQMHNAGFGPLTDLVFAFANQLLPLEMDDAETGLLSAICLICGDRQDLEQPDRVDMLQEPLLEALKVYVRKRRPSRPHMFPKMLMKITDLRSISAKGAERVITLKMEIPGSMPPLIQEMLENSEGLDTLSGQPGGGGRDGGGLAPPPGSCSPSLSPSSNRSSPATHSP
Protocol: as §1, §2

[3] = target: T5, mGR (glucocorticoid receptor) (Mus musculus, UniProt P06537)
T5 construct: 524-793; expressed in transfected cells; host or cells: CHO cells, transient transfection
T5 sequence (P06537 524-793 isoform P06537-2): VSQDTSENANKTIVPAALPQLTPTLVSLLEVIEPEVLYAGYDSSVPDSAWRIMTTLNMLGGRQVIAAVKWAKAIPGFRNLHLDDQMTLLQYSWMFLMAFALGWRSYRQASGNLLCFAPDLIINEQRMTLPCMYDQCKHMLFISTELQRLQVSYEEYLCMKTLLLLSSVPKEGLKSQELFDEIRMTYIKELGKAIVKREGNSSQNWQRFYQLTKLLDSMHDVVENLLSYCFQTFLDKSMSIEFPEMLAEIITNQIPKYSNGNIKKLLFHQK
Protocol: as §1, §2

[4] = Table 6, read-out: Potency (EC50) at hAR
[5] = Table 6, read-out: Potency (EC50) at hERα
[6] = Table 6, RORγ ligands: no significant activity at 20 μM, read-out: Potency (EC50) at hPPARδ
[7] = Table 6, read-out: Potency (EC50) at hRARα
[8] = Table 6, read-out: Potency (EC50) at mGR

Measured: pEC50

O=S(=O)(c1ccccc1)N(CC(F)(F)F)c1ccc(C(O)(C(F)(F)F)C(F)(F)F)cc1 [Compound T0901317, N-(2,2,2-Trifluoro-ethyl)-N-[4-(2,2,2-trifluoro-1-hydroxy-1-trifluoromethyl-ethyl)-phenyl]-benzenesulfonamide, reference compound]
< 5.00: hAR (androgen receptor); [4] | [1]; [5] | hPPARδ; [6] | [2]; [7] | [3]; [8]

C[C@@H]1CC[C@@]2(OC1)O[C@H]1C[C@H]3[C@@H]4CC[C@H]5C[C@@H](O)CC[C@]5(C)[C@H]4C[C@@H](O)[C@]3(C)[C@H]1[C@@H]2C [OR-885, 5α,20α, 22α, 25D-SPIROSTAN-3β, 12β-DIOL]
< 5.00: hAR (androgen receptor) | [1] | hPPARδ | [2] | [3]

COC(C)CCC(C)C1CCC2C3CC(O)C4CC(O)CCC4(C)C3CCC12C (centres unmarked) [OR-12872, 17-(4-Methoxy-1-methyl-pentyl)-10,13-dimethyl-hexadecahydro-cyclopenta[a]phenanthrene-3,6-diol]
< 5.00: hAR (androgen receptor); [4] | [1]; [5] | hPPARδ; [6] | [2]; [7] | [3]; [8]

CCn1c(CNc2ccc(Cl)cc2)nnc1SCC(=O)Nc1cccc2ccccc12 [OR-133008, 2-{5-[(4-Chloro-phenylamino)-methyl]-4-ethyl-4H-[1,2,4]triazol-3-ylsulfanyl}-N-naphthalen-1-yl-acetamide]
< 5.00: hAR (androgen receptor); [4] | [1]; [5] | hPPARδ; [6] | [2]; [7] | [3]; [8]

COc1c(C=NNc2nc(N3CCCCC3)nc(N3CCCCC3)n2)cccc1[N+](=O)[O-] [OR-2161, N-(4,6-Di-piperidin-1-yl-[1,3,5]triazin-2-yl)-N′-(2-methoxy-3-nitro-benzylidene)-hydrazine]
< 5.00: hAR (androgen receptor); [4] | [1]; [5] | hPPARδ; [6] | [2]; [7] | [3]; [8]

CCN(c1ccc(C(O)(C(F)(F)F)C(F)(F)F)cc1)S(=O)(=O)c1ccc([N+](=O)[O-])cc1 [OR-1050, N-Ethyl-4-nitro-N-[4-(2,2,2-trifluoro-1-hydroxy-1-trifluoromethyl-ethyl)-phenyl]-benzenesulfonamide]
< 5.00: hAR (androgen receptor); [4] | [1]; [5] | hPPARδ; [6] | [2]; [7] | [3]; [8]

CC(=O)O[C@H]1CC[C@@]2(C)C(CC[C@]3(C)C2C(=O)C=C2C4[C@@H](C)[C@H](C)CC[C@]4(C(=O)O)CC[C@]23C)C1(C)C (stereo in doubt) [OR-13571, 10-Acetoxy-1,2,6a,6b,9,9,12a-heptamethyl-13-oxo-1,3,4,5,6,6a,6b,7,8,8a,9,10,11,12,12a,12b,13,14b-octadecahydro-2H-picene-4a-carboxylic acid]
< 5.00: hAR (androgen receptor); [4] | [1]; [5] | hPPARδ; [6] | [2]; [7] | [3]; [8]
